The test system of assay [1] is myeloma protein CAL20 TEPC1035. Briefly: Quantitative precipitin inhibition assay, CAL20 TEPC1035 with dextran B1498S. In kind it is binding, murine. Particulars: for Relative potency: Table II, maltose = 1.0.
Assay [2] has as its system serum 895 (anti-panosyl-α(1→4)DGlc). Briefly: Quantitative precipitin assay with antiserum 895. In kind it is binding, Rabbit. Particulars: 80 µl undiluted serum, total vol 400 µl.
The target of assay [3] is T1, myeloma protein J558 (Mus musculus, UniProt P01724+P01757). Briefly: Quantitative precipitin assay with J558. Particulars: Table I; total vol 400 µl. The format is binding, BALB/c mouse.
T1 sequence (P01757 whole entry): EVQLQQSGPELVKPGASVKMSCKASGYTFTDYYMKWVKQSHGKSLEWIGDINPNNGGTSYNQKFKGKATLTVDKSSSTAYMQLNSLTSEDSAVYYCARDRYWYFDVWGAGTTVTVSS
T1 sequence (P01724 20-129): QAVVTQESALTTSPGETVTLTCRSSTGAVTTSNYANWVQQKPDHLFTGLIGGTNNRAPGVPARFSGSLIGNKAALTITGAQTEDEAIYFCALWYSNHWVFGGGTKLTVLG
In assay [4] the test system is myeloma protein CAL20 TEPC1035. The assay is described as follows: Quantitative precipitin assay with CAL20 TEPC1035. In kind it is binding, murine. The note with it: Table I; 6.5 µg antibody N, total vol 400 µl.
The target in assay [5] is T1, myeloma protein J558. Briefly: Quantitative precipitin inhibition assay, J558. Particulars: at 0.99 µmol; 15 µg dextran B1498S. The format is binding, BALB/c mouse.
Assay [6] concerns the target T2, myeloma protein MOPC104E (Mus musculus, UniProt P01724+P01756). The assay is described as follows: Quantitative precipitin inhibition assay, MOPC104E. The note with it: 25 µg dextran B1498S. The format is binding, BALB/c mouse.
The next assay concerns myeloma protein UPC102. The assay is described as follows: Quantitative precipitin inhibition assay, UPC102. Particulars: at 0.52 µmol; 15 µg dextran B1355S. In kind it is binding, BALB/c mouse.
The target in assay [7] is T2, myeloma protein MOPC104E. The note with it: cited from earlier work.
Setting [8] is: inhibition of CAL20 TEPC1035-dextran B1498S precipitation.

Where “and” joins values, the source holds several entries; their conditions need not be identical. Identical values can stand only once.

T2 sequence (P01756 whole entry): as the sequence (P01757 whole entry) above, with R100Y, Y101D counted along it
T2 sequence (P01724 20-129): as the sequence (P01724 20-129) above

With `OC[C@H]1O[C@H](O[C@H]2C(O)O[C@H](CO)[C@@H](O)[C@@H]2O)[C@H](O)[C@@H](O)[C@@H]1O` (stereo partly shown) [Kojibiose, DGlcα(1→2)DGlc], the inhibition of precipitation in assay [1] (at 0.98 µmol) was determined as 20%.
Turning to 34-a-u-glucosylisomaltohexaose [I/5], the inhibition of precipitation in assay [1] (at 0.15 µmol) was 47%.
In assay [1], `OC[C@H]1O[C@H](OC[C@H]2O[C@H](O[C@H]3[C@H](O)[C@@H](O)[C@@H](O[C@H]4[C@H](O)[C@@H](O)C(O)O[C@@H]4CO)O[C@@H]3CO)[C@H](O)[C@@H](O)[C@@H]2O)[C@H](O)[C@@H](O)[C@@H]1O` (stereo partly shown) [DGlcα(1→6)DGlcα(1→4)DGlcα(1→4)DGlc] yielded a Relative potency of 2.4. Besides, the “times more potent than the trisaccharide DGlcα(1→6)DGlcα(1→3)DGlc” value in assay [1] (setting [8]) worked out at 1.5 times.
Take Glycogen: in assay [2], the “Precipitation with serum 895” value was “precipitated poorly”. In addition, the “Precipitating power with J558” value on myeloma protein J558 [3] was “-”. Moreover, the “Precipitating power with CAL20 TEPC1035” value in assay [4] is listed as “-”.
For the molecule `OC[C@H]1O[C@H](O[C@H]2[C@H](O)[C@@H](O)[C@@H](OC[C@H]3O[C@H](O[C@H]4[C@H](O)[C@@H](O)[C@@H](O[C@H]5[C@H](O)[C@@H](O)[C@@H](OC[C@H]6OC(O)[C@H](O)[C@@H](O)[C@@H]6O)O[C@@H]5CO)O[C@@H]4CO)[C@H](O)[C@@H](O)[C@@H]3O)O[C@@H]2CO)[C@H](O)[C@@H](O)[C@@H]1O` (stereo partly shown) [Isopanosylα(1→4)isopanose, DGlcα(1→4)DGlcα(1→6)DGlcα(1→4)DGlcα(1→4)DGlcα(1→6)DGlc], in assay [1], the Relative potency stood at 1.0. The “times more potent than isopanose” value in assay [1] (setting [8]) is on record as 2.85 times.
With maltotriose, in assay [1], the Relative potency is on record as 1.0.
The molecule `OC[C@H]1O[C@H](O[C@@H]2[C@@H](O)[C@@H](O[C@@H]3[C@@H](O)[C@@H](O[C@@H]4[C@@H](O)[C@@H](O[C@H]5[C@H](O)[C@@H](CO)OC(O)[C@@H]5O)O[C@H](CO)[C@H]4O)O[C@H](CO)[C@H]3O)O[C@H](CO)[C@H]2O)[C@H](O)[C@@H](O)[C@@H]1O` (stereo partly shown) [Nigeropentaose, nigeropentaose] had a Relative potency in assay [1] of 0.29.
For maltopentaose, the Relative potency in assay [1] came out at 1.41.
Regarding `OC[C@H]1O[C@H](OC[C@H]2O[C@H](O[C@H]3[C@H](O)[C@@H](O)C(O)O[C@@H]3CO)[C@H](O)[C@@H](O)[C@@H]2O)[C@H](O)[C@@H](O)[C@@H]1O` (stereo partly shown) [Panose], at myeloma protein J558 [5], the “inhibition of precipitation of J558” value turned out to be 15%. For the same molecule, the “inhibition of precipitation of MOPC104E” value at myeloma protein MOPC104E [6] (up to 0.99 µmol) is listed as “no inhibition”. Moreover, in the assay on myeloma protein UPC102, the “inhibition of precipitation of UPC102” value amounted to 15%. The same molecule displayed a Relative potency in assay [1] of 8.0. In assay [1] (setting [8]), the “times more active than kojibiose” value is above 42 times; the “times more potent than the tetrasaccharide DGlcα(1→6)DGlcα(1→4)DGlcα(1→4)DGlc” value was 3.3 times and 2.5 times. For the same molecule, on myeloma protein MOPC104E [7], the “relative potency at 50% inhibition relative to nigerose as 1.0 on a molar basis” value was 0.105.
Regarding nigerohexa-heptaose, the Relative potency in assay [1] is listed as 0.33.
The molecule `OC[C@H]1O[C@H](O[C@H]2[C@@H](OC[C@H]3OC(O)[C@H](O)[C@@H](O)[C@@H]3O)O[C@H](CO)[C@@H](O)[C@@H]2O)[C@H](O)[C@@H](O)[C@@H]1O` (stereo partly shown) [DGlcα(1→2)DGlcα(1→6)DGlc] showed an inhibition of precipitation in assay [1] (at 0.36 µmol) of 15%.
The molecule `OC[C@H]1O[C@H](O[C@H]2[C@H](O)[C@@H](O)[C@@H](OC[C@H]3OC(O)[C@H](O)[C@@H](O)[C@@H]3O)O[C@@H]2CO)[C@H](O)[C@@H](O)[C@@H]1O` (stereo partly shown) [Isopanose, DGlcα(1→4)DGlcα(1→6)DGlc] registered a Relative potency in assay [1] of 0.35.
On to `OC[C@H]1O[C@H](O[C@H]2[C@H](O)[C@@H](O)[C@@H](O[C@H]3[C@H](O)[C@@H](O)[C@@H](O[C@H]4[C@H](O)[C@@H](O)C(O)O[C@@H]4CO)O[C@@H]3CO)O[C@@H]2CO)[C@H](O)[C@@H](O)[C@@H]1O` (stereo partly shown) [Maltotetraose, maltotetraose], for which, in assay [1], the Relative potency came to 1.0.
On to Pullulan, for which the “Precipitation with serum 895” value in assay [2] is given as “precipitated poorly”. For the same molecule, at myeloma protein J558 [3], the “Precipitating power with J558” value is “-”. Besides, the “Precipitating power with CAL20 TEPC1035” value in assay [4] is listed as “-”.
On to `OC[C@H]1O[C@H](OC[C@H]2O[C@H](OC[C@H]3O[C@H](OC[C@H]4O[C@H](OC[C@H]5O[C@H](OC[C@H]6O[C@H](OC[C@H]7OC(O)[C@H](O)[C@@H](O)[C@@H]7O)[C@H](O)[C@@H](O)[C@@H]6O)[C@H](O)[C@@H](O)[C@@H]5O)[C@H](O)[C@@H](O)[C@@H]4O)[C@H](O)[C@@H](O)[C@@H]3O)[C@H](O)[C@@H](O)[C@@H]2O)[C@H](O)[C@@H](O)[C@@H]1O` (stereo partly shown) [Isomaltoheptaose, isomaltoheptaose], for which the inhibition of precipitation in assay [1] (at 0.4 µmol) was found to be 35%.
Regarding `OC[C@H]1O[C@H](O[C@H]2[C@H](O)[C@@H](O)C(O)O[C@@H]2CO)[C@H](O)[C@@H](O)[C@@H]1O` (mixture of isomers) [Maltose, maltose], in assay [1], the Relative potency is 1.0. Further, the “activity relative to methyl α-D-glucoside” value in assay [1] (setting [8]) is “three times”.
In assay [1], Gentiobiose came in with a Relative potency of 0.12.
On to `CC(=O)OC[C@@H](O)[C@@H](O)[C@H](O)[C@@H](O)C=O` [6-O-acetyl-glucose, 6-O-acetyl-glucose], for which, in assay [1], the Relative potency is listed as 0.14.
Consider `OC[C@H]1O[C@H](OC[C@H]2O[C@H](OC[C@H]3OC(O)[C@H](O)[C@@H](O)[C@@H]3O)[C@H](O)[C@@H](O)[C@@H]2O)[C@H](O)[C@@H](O)[C@@H]1O` (stereo partly shown) [Isomaltotriose, isomaltotriose], for which the Relative potency in assay [1] amounted to 0.20.
For the molecule `OC[C@H]1O[C@H](OC[C@H]2O[C@H](OC[C@H]3O[C@H](OC[C@H]4O[C@H](OC[C@H]5OC(O)[C@H](O)[C@@H](O)[C@@H]5O)[C@H](O)[C@@H](O)[C@@H]4O)[C@H](O)[C@@H](O)[C@@H]3O)[C@H](O)[C@@H](O)[C@@H]2O)[C@H](O)[C@@H](O)[C@@H]1O` (stereo partly shown) [Isomaltopentaose, isomaltopentaose], the inhibition of precipitation in assay [1] (at 0.5 µmol) and in assay [1] (at 0.59 µmol (Table II)) was 44% each time.
As to `OC[C@H]1O[C@H](O[C@H]2O[C@H](CO)[C@@H](O)[C@H](O)[C@H]2O)[C@H](O)[C@@H](O)[C@@H]1O` [Trehalose, DGlcα(1→1)DGlc], the inhibition of precipitation entry in assay [1] (at 1.1 µmol) is “No inhibition”.
`OC[C@H]1O[C@H](OC[C@H]2O[C@H](OC[C@H]3O[C@H](OC[C@H]4O[C@H](OC[C@H]5OC(O)[C@H](O)[C@@H](O)[C@@H]5O)[C@H](O)[C@@H](O)[C@@H]4O)[C@H](O)[C@@H](O)[C@@H]3O[C@H]3O[C@H](CO)[C@@H](O)[C@H](O)[C@H]3O)[C@H](O)[C@@H](O)[C@@H]2O)[C@H](O)[C@@H](O)[C@@H]1O` (stereo partly shown) [II/3, 43-a-v-glucosylisomaltopen taose] registered a Relative potency in assay [1] of 0.8.
Regarding `OC[C@H]1O[C@H](O[C@@H]2[C@@H](O)[C@@H](O[C@@H]3[C@@H](O)[C@@H](O[C@H]4[C@H](O)[C@@H](CO)OC(O)[C@@H]4O)O[C@H](CO)[C@H]3O)O[C@H](CO)[C@H]2O)[C@H](O)[C@@H](O)[C@@H]1O` (stereo partly shown) [Nigerotetraose, nigerotetraose], the “inhibition of precipitation of MOPC104E” value at myeloma protein MOPC104E [6] (at 0.82 µmol) amounted to 75%. In assay [1], this molecule had a Relative potency of 0.29.
As to `OC[C@H]1O[C@H](OC[C@H]2O[C@H](O[C@H]3[C@H](O)[C@@H](CO)OC(O)[C@@H]3O)[C@H](O)[C@@H](O)[C@@H]2O)[C@H](O)[C@@H](O)[C@@H]1O` (stereo partly shown) [DGlcα(1→6)DGlcα(1→3)DGlc], in assay [1], the Relative potency came out at 1.6.
Take maltohexaose: the Relative potency in assay [1] was found to be 2.4.
The molecule maltoheptaose came in with a Relative potency in assay [1] of 2.4.
With `OC[C@H]1OC(O)[C@H](O)[C@@H](O)[C@@H]1O` (stereo partly shown) [Glucose], the inhibition of precipitation in assay [1] (at 0.2 µmol) and in assay [1] (at 0.92 µmol (Table II)) was 22% each time.
On to `OC[C@H]1O[C@H](OC[C@H]2OC(O)[C@H](O)[C@@H](O)[C@@H]2O)[C@H](O)[C@@H](O)[C@@H]1O` (stereo partly shown) [Isomaltose, isomaltose], for which the Relative potency in assay [1] worked out at 0.19. Besides, the “activity relative to methyl α-D-glucoside” value in assay [1] (setting [8]) is “one-half”.
For the molecule `O=C[C@H](O)[C@@H](O)[C@H](O[C@@H]1O[C@H](CO)[C@@H](O)[C@H](O)[C@H]1O)[C@H](O)CO` [Cellobiose, DGlcβ(1→4)DGlc], the Relative potency in assay [1] amounted to 0.24.
In assay [1] (at 0.41 µmol), `OC[C@H]1O[C@H](OC[C@H]2O[C@H](OC[C@H]3O[C@H](OC[C@H]4O[C@H](OC[C@H]5O[C@H](OC[C@H]6OC(O)[C@H](O)[C@@H](O)[C@@H]6O)[C@H](O)[C@@H](O)[C@@H]5O)[C@H](O)[C@@H](O)[C@@H]4O)[C@H](O)[C@@H](O)[C@@H]3O)[C@H](O)[C@@H](O)[C@@H]2O)[C@H](O)[C@@H](O)[C@@H]1O` (stereo partly shown) [Isomaltohexaose, isomaltohexaose] came in with an inhibition of precipitation of 20%.
Regarding `OC[C@H]1O[C@H](O[C@H]2[C@H](O)[C@@H](CO)OC(O)[C@@H]2O)[C@H](O)[C@@H](O)[C@@H]1O` (stereo partly shown) [Nigerose, nigerose], the “inhibition of precipitation of MOPC104E” value against myeloma protein MOPC104E [6] (at 0.9 µmol) came out at 25%. In assay [1], this molecule gave a Relative potency of 0.35. Besides, the “activity relative to methyl α-D-glucoside” value in assay [1] (setting [8]) is recorded as “equally”.
Turning to `OC[C@H]1O[C@H](O[C@@H]2[C@@H](O)[C@@H](OC[C@H]3OC(O)[C@H](O)[C@@H](O)[C@@H]3O)O[C@H](CO)[C@H]2O)[C@H](O)[C@@H](O)[C@@H]1O` (stereo partly shown) [DGlcα(1→3)DGlcα(1→6)DGlc], in assay [1] (at 0.16 µmol), the inhibition of precipitation came to 40%.
For the molecule `OC[C@H]1O[C@H](O[C@@H]2[C@@H](O)[C@@H](O[C@H]3[C@H](O)[C@@H](CO)OC(O)[C@@H]3O)O[C@H](CO)[C@H]2O)[C@H](O)[C@@H](O)[C@@H]1O` (stereo partly shown) [Nigerotriose, nigerotriose], the Relative potency in assay [1] is 0.29.
